The results in this text go back to ChEMBL document CHEMBL3714744, “Aryl sulfonamides” (2009).

Each structure is given as a SMILES string. Active and inactive are the calls of the source. No cut-off for these calls is given here.

The target of experiment [1] is T1, C-C chemokine receptor type 9 (Homo sapiens, UniProt P51686).
T1 sequence (P51686 whole entry): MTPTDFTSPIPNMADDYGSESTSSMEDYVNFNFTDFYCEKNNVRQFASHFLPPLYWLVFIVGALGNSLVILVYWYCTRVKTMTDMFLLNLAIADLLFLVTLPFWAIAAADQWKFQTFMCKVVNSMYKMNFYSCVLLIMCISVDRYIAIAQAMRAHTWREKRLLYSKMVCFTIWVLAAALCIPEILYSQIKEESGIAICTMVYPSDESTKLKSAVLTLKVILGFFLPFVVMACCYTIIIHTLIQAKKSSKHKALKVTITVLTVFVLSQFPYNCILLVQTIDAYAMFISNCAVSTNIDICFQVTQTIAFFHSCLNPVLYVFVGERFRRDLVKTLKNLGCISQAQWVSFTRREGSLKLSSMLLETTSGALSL
Kind of experiment: Antagonist activity against CCR9 in human MOLT4 cells assessed as inhibition of human recombinant TECK-induced calcium response pre-treated before TECK stimulation by Flou-4-AM dye based FLIPR assay. It counts as functional, cell-based, MOLT-4.

In the next experiment the test system is Mus musculus. Kind of experiment: Inhibition of inflammatory bowel disease-associated growth retardation in MDR1a-knockout mouse at 50 mg/kg, sc dosed twice daily for 14 consecutive weeks starting at age 10 weeks. It counts as functional, organism-based.

For orientation: IC50 means the concentration that inhibits the measured activity by half.

Regarding `COC(=O)CCc1ccc(S(=O)(=O)Nc2ccc(Cl)cc2C(=O)c2ccnc(C)c2)cc1`, the IC50 in experiment [1] is less than 100 nM. In the case of `COc1ccc(S(=O)(=O)Nc2ccc(Cl)cc2C(=O)c2ccccn2)cc1`, in experiment [1] (molt-4), the 50% inhibitory concentration (IC50) entry is “in the range around 100 nM”.

For the molecule `CC(C)(C)c1ccc(S(=O)(=O)Nc2ccc(Cl)cc2C(=O)c2ccncc2)cc1`, in the experiment with Mus musculus, the inhibition result was “Active”. As for `Cc1ncccc1C(=O)c1cc(Cl)ccc1NS(=O)(=O)c1ccc(OC(F)(F)F)cc1`, the IC50 result in experiment [1] (molt-4) is “in the range around 100 nM”. On the same count and under the same terms, to `Cc1ncccc1C(=O)c1cc(Cl)ccc1NS(=O)(=O)c1ccc(-c2cnco2)cc1` belongs “in the range around 1000 nM”. Turning to `CC(=O)c1ccc(S(=O)(=O)Nc2ccc(Br)cc2C(=O)c2ccncc2)cc1`, the IC50 in experiment [1] is less than 100 nM. On the same count and under the same terms, to `Cc1cc(C(=O)c2cc(Cl)ccc2NS(=O)(=O)c2ccc(S(C)(=O)=O)cc2)ccn1` belongs less than 100 nM; to `CS(=O)(=O)c1ccc(S(=O)(=O)Nc2ccc(Cl)cc2C(=O)c2cccnc2)cc1`, less than 100 nM. Still for that read-out and setting: the figure for `O=C(c1ccncc1)c1cc(Cl)ccc1NS(=O)(=O)c1ccc([N+](=O)[O-])cc1` is less than 100 nM.
